Data from EP1112066B1, “USE OF METHOXYMORPHOLINO DOXORUBICIN FOR THE TREATMENT OF A LIVER TUMOR” (Pharmacia Italia S.p.A., priority 1998, dated 2000).
Structures can show the parent of a compound that is named as a salt. Where two headings read alike, the source gives them in different places.

Tests used:
[1] = tested on: metastatic colorectal cancer; settings: cited from earlier work
liver metastases [2] = settings: hepatic arterial infusion; no substantial effect on survival; cited from earlier work
[3] = Cytotoxic activity in vitro in the presence of liver microsomes; type: cell-based; settings: mouse, rat and human liver microsomes
Text: (§1) Strong evidence of antitumor efficacy in liver is also supported by preclinical data. […] This specific effect on liver metastases is probably due to metabolite(s) produced by liver enzymes. This hypothesis is reinforced by several results showing MMDX being activated in vitro by liver microsomes to a highly cytotoxic product. This metabolic conversion is believed to occur also in humans.

[4] = tested on: liver metastases from M5076 murine fibrosarcoma; assay: Liver metastases from M5076 murine tumor; type: in vivo
Text: (§2) The high lipophilicity of the molecule, which confers to the compound the ability to reach high intracellular concentrations and is most likely one of the reasons of its efficacy on resistant models, makes it effective also after oral administration. The oral antitumor efficacy of MMDX has been examined in a panel of different tumor types with various schedules of administration. […] In these models, the effective oral doses of MMDX are 1.3-2 fold higher than the effective i.v. doses. […] This might be a reflection of a different behaviour of the drug, due to first pass effect to the liver.
as §1

HCC = assay: Phase I dose-finding study of MMDX via the hepatic artery (IHA): antitumor activity in liver; type: in vivo, human
Procedure: (§3) A single arm, multicentre, dose-finding Phase I study of MMDX (PNU 152243) administered as a brief infusion of 30 minutes every 4 weeks via the hepatic artery (IHA) to adult patients either with hepatic metastatic colorectal cancer who have progressed after receiving intravenous chemotherapy or intrahepatic 5-fluoruracil chemotherapy, or with previously untreated primary hepatocellular carcinoma or cholangiocarcinoma involving the liver was carried out. Their disease was confined to the liver, at the time of trial entry.
Antitumor activity was documented in this study.
(§4) On a total of 23 registered patients, 18 received intra hepatic artery (IHA) administration of MMDX.
(§5) Doses tested ranged from 100 mcg/m^2 to 800 mcg/m^2.
(§6) Results are available on 13 patients: 3 patients (6 cycles) at 100 mcg/m^2, 3 patients (12 cycles) at 200mcg/m^2, 3 patients (4 cycles) at 400 mcg/m^2, 3 patients (10 cycles) at 600 mcg/m^2 and 1 patient (3 cycles) at 800 mcg/m^2.

[5] = tested on: tumor cells resistant to anthracyclines and presenting the mdr phenotype; assay: Activity in vitro and in vivo on resistant tumor cells
Text: MMDX is active in vitro and in vivo on tumor cells resistant to anthracyclines and presenting the mdr phenotype, this last mechanism being recognized to occur also in man.
A well known pathway of the metabolic transformation of the antitumor anthracyclines in mammals is the side-chain carbonyl group reduction, giving the corresponding 13-dihydro derivative.

liver metastases [6] = assay: Phase II study by i.v. route in breast cancer patients with liver metastases; type: in vivo, human; settings: 1500 mcg/m^2 i.v., six patients treated
[7] = Lethal dose (LD10) in rats; type: in vivo
Text: (§7) The starting dose was 100 mcg/m^2,corresponding to one third of the LD10 in rats.

[8] = Phase I dose-finding study of MMDX via the hepatic artery (IHA): toxicity; type: in vivo, human; settings: for thrombocytopenia (grade): considered tumor related (HCC patient); for anemia (max. grade): one patient
Procedure: as §3
The primary goal of this study was the determination of Maximal Tolerated Dose (MTD) and Dose-Limiting Toxicities (DLTs)of MMDX when administered via the hepatic artery.
as §7, §4, §5, §6

[9] = tested on: murine leukemias, solid murine and human tumor models; assay: In vivo antitumor potency, optimal i.v. dose
liver metastases [10] = assay: Phase I and phase Ib studies by intravenous route: response in liver and toxicity; type: in vivo, human; settings: i.v.
Text: The expectation that MMDX is effective in liver neoplasms comes from the findings of phase I and phase Ib studies conducted by intravenous route, where, out of 30 patients evaluable for response in liver, 5 experienced regressions of liver metastases. […] Tumor shrinkage occurred at doses of 1250 and 1500 mcg/m^2 i.v..

[11] = tested on: panel of different tumor types; assay: Oral antitumor efficacy in a panel of tumor types; type: in vivo
Text: as §2

[12] = after failure of 5-FU leucovorin
[13] = 400 mcg/m^2 IHA, one patient (1 cycle)
[14] = 600 mcg/m^2 IHA, 1 patient (2 cycles)
[15] = 800 mcg/m^2 IHA, 1 patient (1 cycle)
[16] = systemic, metastatic colorectal cancer

## CCc1c2c(nc3ccc(OC(=O)N4CCC(N5CCCCC5)CC4)cc13)-c1cc3c(c(=O)n1C2)COC(=O)[C@]3(O)CC [Irinotecan hydrochloride trihydrate]
[1]; [12]
  median survival time: approximately 9 months
  response rate: 15%

## O=c1[nH]c(=O)n([C@H]2C[C@H](O)[C@@H](CO)O2)cc1F [FUDR, 5-fluorodeoxyuridine]
Liver metastases [2]
  response rate: up to 50%

## COc1cccc2c1C(=O)c1c(O)c3c(c(O)c1C2=O)C[C@@](O)(C(=O)CO)C[C@@H]3O[C@H]1C[C@H](N2CCO[C@H](OC)C2)[C@H](O)[C@H](C)O1 [MMDX, Methoxymorpholino doxorubicin]
[3]
  cytotoxic activity in the presence of liver microsomes: increased
[4]; administered orally, same M5076 model
  efficacy on the liver metastases versus the solid primary: more effective on the liver metastases than on the solid primary
[4]; injectable formulation
  efficacy relative to the oral formulation: less effective
[4]; oral formulation, daily for 5 days
  survival time (best result): doubling of survival time
HCC; 200 mcg/m^2 IHA, first HCC patient, after 2 IHA cycles
  reduction of measurable liver disease (NMR, overall 17.75 cm^2 at entry): more than 86%
HCC; 200 mcg/m^2 IHA, first HCC patient, after 2 IHA cycles, confirmed after the fourth
  tumor response: Partial Response (PR)
HCC; 200 mcg/m^2 IHA, first HCC patient, after the sixth IHA cycle
  tumor response: Complete Response (CR)
HCC; 200 mcg/m^2 IHA, patients with HCC
  number of objective tumor responses in liver: Two
HCC; 200 mcg/m^2 IHA, second HCC patient, after the third IHA cycle
  decrease of the bigger lesion in diameter (6 cm at baseline, Ctscan): 50%
HCC; 800 mcg/m^2 IHA, third HCC patient, after 3 cycles
  tumor response: minor response
[5]; in vitro and in vivo
  activity on tumor cells resistant to anthracyclines (mdr phenotype): active
[5]; tumor cells resistant to L-PAM or cDDP, or to Topoisomerase II inhibitors (at-mdr)
  cross-resistance: No cross-resistance
Liver metastases [6]
  number of complete responses in liver lesions: 1
  number of minor responses in liver lesions: 1
Liver metastases [6]; one not confirmed four weeks apart
  number of partial responses in liver lesions: 3
[7]
  one third of the LD10 in rats: 100 mcg/m^2
Lipophilicity
  lipophilicity: high
[8]; 100 mcg/m^2 IHA, 1 patient (1 cycle)
  leucopenia (grade): 1
[8]; 100 mcg/m^2 IHA, 2 patients (3 cycles)
  fatigue (grade): 1-2
[8]; 100 mcg/m^2 IHA, one out of three patients (1 cycle)
  vomiting: mild
[8]; 200 mcg/m^2 IHA, 1 patient (1 cycle)
  leucopenia (grade): 1
[8]; 200 mcg/m^2 IHA, 1 patient (2 cycles)
  fatigue (grade): 2
[8]; 200 mcg/m^2 IHA, 1 patient (3 cycles)
  thrombocytopenia (grade): 1-2
[8]; 200 mcg/m^2 IHA, 2/3 patients
  increase in transaminases (grade), attributable to the study drug: 1-2
[8]; 200 mcg/m^2 IHA, 2 patients (2 cycles)
  nausea (grade): 2
[8]; 200 mcg/m^2 IHA, 2 patients (3 cycles)
  vomiting (grade): 1-2
[8]; 200 mcg/m^2 IHA
  anemia (max. grade): ≤ 1
[8]; 200 mcg/m^2 IHA, two patients (one diabetic, persisting from baseline; one post prandial)
  hyperglycemia (grade): 3
[8]; 400 mcg/m^2 IHA, 1 patient (1 cycle)
  leucopenia (grade): 1
[8]; 400 mcg/m^2 IHA, 2/3 patients
  increase in transaminases (grade), attributable to the study drug: 1-2
[8]; 400 mcg/m^2 IHA, 2 patients (2 cycles)
  nausea (grade): 2-3
[8]; [13]
  alopecia: mild
  local pain at porth-a-cath site: Mild
  vomiting (grade): 2
[8]; 400 mcg/m^2 IHA, third patient, probably due to the IHA technology applied
  transaminase elevation (grade): 2-3
[8]; 600 mcg/m^2 IHA, 1 patient (1 cycle)
  thrombocytopenia (grade): 1-2
[8]; [14]
  alopecia: mild
  fatigue (grade): 2
[8]; 600 mcg/m^2 IHA, 2 out of 3 patients
  increase in transaminases (grade), attributable to the study drug: 1-2
[8]; 600 mcg/m^2 IHA, 2 patients (2 cycles)
  nausea (grade): 1-2
[8]; 600 mcg/m^2 IHA
  anemia (max. grade): ≤ 1
[8]; [15]
  fatigue (grade): 1
  fever (grade): 1
  mucositis (grade): 1
  nausea (grade): 1
[8]; 800 mcg/m^2 IHA
  anemia (max. grade): ≤ 1
[8]; 800 mcg/m^2 IHA, the one patient treated
  transaminase elevation (grade): 3
[8]; IHA
  time of maximum transaminases elevation: during the first week after treatment
[8]; IHA, 100-800 mcg/m^2
  most frequently observed adverse events attributable to the study drug: nausea, vomiting and fatigue
  other grade 3-4 non-hematological events: No other grade 3-4 events
[8]; IHA, all doses reported
  AGC: always normal
[8]; IHA, starting from 100 mcg/m^2, not considered due to the study drug
  bilirubinemia increases (grade): 2
[9]; after i.p., i.v. or oral administration, murine leukemias, solid murine and human tumor models
  antitumor activity: good antitumor activity
[9]; in vivo, i.v.
  optimal i.v. dose, fold less than that of doxorubicin: at least 80 fold
Liver metastases [10]; phase I and Ib
  main toxicities: nausea and vomiting (requiring intravenous antiemetic treatment), myelosuppression and transient elevations in transaminases
Liver metastases [10]; additional patient with colorectal cancer and multiple liver metastases at entry, after the first cycle
  liver finding at autopsy: no evidence of liver metastases
Liver metastases [10]; out of 30 patients evaluable for response in liver, shrinkage at 1250 and 1500 mcg/m^2
  number of patients with regressions of liver metastases: 5
Liver metastases [10]; two patients with colorectal cancer, after 3 cycles
  regression of liver lesions: < 50%
Liver metastases [10]; two patients with renal cancer, after 3 cycles
  regression in liver lesions: greater than 50%
[11]; all animal models examined, various schedules
  oral antitumor activity compared to intravenous (i.v.) administration: comparable
[11]; animal models
  effective oral doses, fold higher than the effective i.v. doses: 1.3-2 fold

## O=c1[nH]cc(F)c(=O)[nH]1 [5-FU, 5-fluoruracil]
Liver metastases [2]
  response rate: up to 50%

## COc1cccc2c1C(=O)c1c(O)c3c(c(O)c1C2=O)CC(O)(C(O)CO)CC3OC1CC(N2CCOC(OC)C2)C(O)C(C)O1 (stereo not drawn) [reduced derivative of MMDX]
[5]; doxorubicin-resistant models, in vitro and in vivo
  active doses, fold higher as compared to the parent drug: 10 fold
[5]; in vitro and in vivo
  activity against doxorubicin-resistant models: maintains activity

## 5-fluoruracil (5-FU) plus folinic acid
[1]; [16]
  overall survival: around 12 months
  response rate: 20%
